# Test results as given in ChEMBL document CHEMBL1130117, “Structure-activity relationships for the antileishmanial and antitrypanosomal activities of 1'-substituted 9-anilinoacridines” (J Med Chem, 1997).
# How the values were obtained:
# Trypanosoma cruzi = assay: Concentration required to reduce the number of macrophages infected with Trypanosoma cruzi amastigotes to 50% of untreated controls.; assay type: functional; details: read-out: ED50 (the source's name)
# Leishmania donovani = assay: Concentration required to reduce the number of macrophages infected with Leishmania donovani amastigotes to 50% of untreated controls.; assay type: functional; details: read-out: ED50 (the source's name)
# Leishmania major = assay: Concentration required to reduce incorporation of [3H]TdR in drug-treated cultures of intracellular Leishmania major to 50% of controls; assay type: functional, organism-based
# Jurkat = assay: Concentration required to reduce the growth of human Jurkat cells to 50% of control cultures; assay type: functional, cell-based
# Trypanosoma brucei = assay: Concentration required to inhibit the growth of extracellular Trypanosoma brucei trypomastigotes to 50% of untreated controls.; assay type: functional; details: read-out: ED50 (the source's name)
# [1] = Lipophilicity index (substitution method); assay type: physicochemical; details: octanol/water
# [2] = relative lipophilicity determined where possible by computation by the fragment constant method; assay type: physicochemical; details: octanol/water
SMILES,EC50 (Trypanosoma cruzi) [nM],EC50 (Leishmania donovani) [nM],IC50 (Leishmania major) [nM],IC50 (Jurkat) [nM],EC50 (Trypanosoma brucei) [nM],Index [1],Liphophilicity [2] [sigma pi]
CCCCCCN(C)c1ccc(Nc2c3ccc(Cl)cc3nc3ccc(OC)cc23)cc1,> 3000,> 3000,1800,> 20000,4300,3.73,
CCCN(CCC)c1ccc(Nc2c3ccccc3nc3ccccc23)cc1,2500,> 10000,200,1500,370,2.24,
CCCCCCNc1ccc(Nc2c3ccccc3nc3ccccc23)cc1,2200,12300,550,17000,3900,2.38,
NCCCCCCNS(=O)(=O)c1ccc(N=c2c3ccccc3[nH]c3ccccc23)cc1,,,> 3000,> 20000,,,
CCN(C)c1ccc(Nc2c3ccccc3nc3ccccc23)cc1OC,,,> 3000,16500,,0.66,
CCCCCCCc1ccc(Nc2c3ccccc3nc3ccccc23)cc1,,,800,13000,,3.99,
c1ccc(Nc2c3ccccc3nc3ccccc23)cc1,,,2700,2700,,0,
CCN(CC)CCNc1ccc(Nc2c3ccccc3nc3ccccc23)cc1OC,,,1600,1500,,3.27,
CCCCCN(CCCCC)c1ccc(Nc2c3ccccc3nc3ccccc23)cc1,> 300,> 90000,160,2300,200,4.88,
CNc1ccc(Nc2c3ccccc3nc3ccccc23)cc1,,,1500,,,-0.47,
CNc1ccc(Nc2c3ccccc3nc3ccccc23)cc1OC,,,3600,11000,,-0.49,
COc1cc(NS(C)(=O)=O)ccc1Nc1c2ccccc2nc2ccccc12 [AMSACRINE],,,1500,200,,-1.2,
CCN(CC)c1ccc(Nc2c3ccccc3nc3ccccc23)cc1,> 3000,760,400,1000,> 300,1.18,
CN(C)Cc1ccc(Nc2c3ccc(N)cc3nc3cc(N)ccc23)cc1,,,5000,12000,,-2.61,
NS(=O)(=O)c1ccc(Nc2c3ccccc3nc3ccccc23)cc1,,,> 3000,5000,,-1.82,
CCCCCCNc1ccc(Nc2c3ccc(Cl)cc3nc3ccc(OC)cc23)cc1,> 10000,4000,200,4000,> 300,3.07,
CCCCN(CCCC)c1ccc(Nc2c3ccccc3nc3ccccc23)cc1,> 10000,> 10000,350,2000,1460,3.56,
CCN(C)c1ccc(Nc2c3ccccc3nc3ccccc23)cc1,3300,4400,1000,4000,880,0.68,
CCN(CC)CCCc1ccc(Nc2c3ccccc3nc3ccccc23)cc1,,,300,< 1000,,4.22,
Nc1ccc2c(Nc3ccc(CN4CCCC4)cc3)c3ccc(N)cc3nc2c1,,,> 3000,> 20000,,,
CCCCCCOc1ccc(Nc2c3ccccc3nc3ccccc23)cc1,,,1000,5000,,2.87,
Nc1ccc2c(=Nc3ccc(S(N)(=O)=O)cc3)c3ccc(N)cc3[nH]c2c1,,,> 3000,,,-4.28,

SMILES,EC50 (Trypanosoma cruzi) [nM],EC50 (Leishmania donovani) [nM],IC50 (Leishmania major) [nM],IC50 (Jurkat) [nM],EC50 (Trypanosoma brucei) [nM],Index [1],Liphophilicity [2] [sigma pi]
Nc1ccc(Nc2c3ccccc3nc3ccccc23)cn1,,,3900,3600,,-2.74,
c1ccc2c(Nc3ccc(CN4CCCC4)cc3)c3ccccc3nc2c1,,,200,2000,,,
CCCCCNCc1ccc(Nc2c3ccccc3nc3ccccc23)cc1,,,2000,1530,,,
CCN(CC)CCCNc1ccc(Nc2c3ccccc3nc3ccccc23)cc1,,,200,1300,,3.29,
CCCCCCNc1ccc(Nc2c3ccc(Cl)cc3nc3ccc(OC)cc23)cc1OC,9300,3200,500,> 20000,600,3.71,
c1ccc2c(Nc3ccc(NC4CCCCC4)cc3)c3ccccc3nc2c1,,,550,> 15000,,2,
CCCCCCN(CCCCCC)c1ccc(Nc2c3ccccc3nc3ccccc23)cc1,> 3000,1350,240,6500,> 300,6.2,
COc1cc(NS(C)(=O)=O)ccc1Nc1c2ccc(N)cc2nc2cc(N)ccc12,,,> 3000,,,-3.66,
CCCCCCN(C)c1ccc(Nc2c3ccccc3nc3ccccc23)cc1OC,> 300,1900,600,6500,1800,3.02,
CN(C)c1ccc2c(Nc3ccccc3)c3ccc(N(C)C)cc3nc2c1,,,30,,,0.36,
CCCCCCNc1ccc(Nc2c3ccc(N(C)C)cc3nc3cc(N(C)C)ccc23)cc1,> 3000,250,160,1750,200,2.74,
CN(C)c1ccc(Nc2c3ccccc3nc3ccccc23)cc1,> 3000,3600,900,1000,1300,0.18,
c1ccc2c(Nc3ccc(NC4CCCC4)cc3)c3ccccc3nc2c1,,,450,5000,,1.8,
CCCCCCNc1ccc(Nc2c3ccccc3nc3ccccc23)cc1OC,1800,1200,400,3500,650,2.36,
CN(C)Cc1ccc(Nc2c3ccccc3nc3ccccc23)cc1,,,1000,,,-0.15,
NCCNCCc1ccc(Nc2c3ccccc3nc3ccccc23)cc1,,,700,4000,,,
CNc1ccc(Nc2c3ccccc3nc3ccccc23)cc1OC(C)C,,,1300,8000,,,0.38
CN(C)Cc1ccc(Nc2c3ccc(Cl)cc3nc3cc(Cl)ccc23)cc1,,,2000,,,1.27,
CCCCCCN(C)c1ccc(Nc2c3ccc(N(C)C)cc3nc3cc(N(C)C)ccc23)cc1,120,30,70,1750,> 300,3.4,
COc1cc(NS(C)(=O)=O)ccc1Nc1c2ccc(N(C)C)cc2nc2cc(N(C)C)ccc12,,,> 3000,3000,,-0.84,
Nc1ccc(Nc2c3ccccc3nc3ccccc23)cc1,,,2100,,,-1.23,
CCCCCCN(C)c1ccc(Nc2c3ccccc3nc3ccccc23)cc1,> 1000,1200,300,3000,330,3.04,
